According to article PMC6663879, “Biochemical and structural investigations clarify the substrate selectivity of the 2-oxoglutarate oxygenase JMJD6” (The Journal of Biological Chemistry, 2019):
“And” between values parts separate entries of the source, which are not always exact repeats. Identical values can stand only once. Ends that are not written are not given here.

Legend:
JMJD6^Δ363–403 [1] = molecular target: T1, JMJD6^Δ363–403 (Homo sapiens, UniProt Q6NYC1); experiment: Standard MS-based hydroxylation assay (MALDI-TOF MS) of substrate peptides; type: biochemical; parameters: two more variants (aa 1–362, JMJD6^Δ363–403, and aa 1–343, JMJD6^Δ344–403); His6 (N); made in house; host or cells: Escherichia coli Rosetta2(DE3); conditions: for Hydroxylation: 10 μM JMJD6^Δ363–403, 100 μM peptide, 100 μM Fe(II), 400 μM ascorbate, 500 μM 2OG, 50 mM HEPES-KOH pH 8.0, 37 °C, 30 min, MALDI-TOF MS; for Hydroxylation / kcat / Km: mean ± S.D. (n = 3); for kcat/Km^app / kcat / Km: standard hydroxylation assay conditions, substrate peptide varied 0–400 μM; for Km: read-out: Km^app; for JMJD6-catalyzed hydroxylation (+16-Da mass shift), result in words: JMJD6^Δ363–403, standard assay conditions, MALDI-TOF MS / LC-MS/MS
JMJD6^Δ363–403 [2] = molecular target: T1, JMJD6^Δ363–403; experiment: Standard MS-based demethylation assay (MALDI-TOF, LC-MS/MS); type: biochemical; parameters: two more variants (aa 1–362, JMJD6^Δ363–403, and aa 1–343, JMJD6^Δ344–403); His6 (N); made in house; host or cells: Escherichia coli Rosetta2(DE3); conditions: JMJD6^Δ363–403, 37 °C, HEPES-KOH pH 8.0, MALDI-TOF MS / LC-MS/MS
Procedure: Peptides were “trapped” on an in-house packed guard column (75-μm inner diameter × 20 mm, Acclaim PepMap® C18, 3 μm, 100 Å) using solvent A (0.1% (v/v) aqueous formic acid) at a pressure of 140 bar. Peptides were separated on an EASY-Spray Acclaim PepMap® analytical column (75 μm inner diameter × 15 mm, rapid separation liquid chromatography C18, 3 μm, 100 Å) using a linear gradient (length, 100 min; 3–60% solvent B (0.1% formic acid in acetonitrile), flow rate, 300 nl/min). The separated peptides were electro-sprayed directly into the spectrometer operating in a data-dependent mode using a collision-induced dissociation/electron transfer dissociation (CID/ETD)-based method. Full scan MS spectra (scan range 150–2000 m/z, resolution 30,000, AGC target 1 × 10^6, maximum injection time 250 ms) and subsequent CID MS/MS spectra (AGC target 3 × 10^4, maximum injection time 500 ms) of the 10 most intense peaks were acquired in the Orbitrap. CID fragmentation was performed at 35% of the normalized collision energy, and the signal intensity threshold was kept at 500 counts. ETD spectra (AGC cation target 5 × 10^4, AGC anion target 2 × 10^5, and cation maximum injection time 100 ms) were acquired in the ion trap. PEAKS® 8.0 (Bioinformatics Solutions, Inc., Waterloo, Canada) was used to analyze raw data. The raw MS files were searched against the respective protein sequences. […]

JMJD2E (KDM4E) = experiment: MS-based demethylation assay, positive control for RDM activity; type: biochemical; conditions: same conditions, MALDI-TOF MS / LC-MS/MS
Procedure: Reaction samples were thereafter analyzed by MALDI-TOF or LC-MS/MS.
Peptides were “trapped” on an in-house packed guard column (75-μm inner diameter × 20 mm, Acclaim PepMap® C18, 3 μm, 100 Å) using solvent A (0.1% (v/v) aqueous formic acid) at a pressure of 140 bar. Peptides were separated on an EASY-Spray Acclaim PepMap® analytical column (75 μm inner diameter × 15 mm, rapid separation liquid chromatography C18, 3 μm, 100 Å) using a linear gradient (length, 100 min; 3–60% solvent B (0.1% formic acid in acetonitrile), flow rate, 300 nl/min). The separated peptides were electro-sprayed directly into the spectrometer operating in a data-dependent mode using a collision-induced dissociation/electron transfer dissociation (CID/ETD)-based method. Full scan MS spectra (scan range 150–2000 m/z, resolution 30,000, AGC target 1 × 10^6, maximum injection time 250 ms) and subsequent CID MS/MS spectra (AGC target 3 × 10^4, maximum injection time 500 ms) of the 10 most intense peaks were acquired in the Orbitrap. CID fragmentation was performed at 35% of the normalized collision energy, and the signal intensity threshold was kept at 500 counts. ETD spectra (AGC cation target 5 × 10^4, AGC anion target 2 × 10^5, and cation maximum injection time 100 ms) were acquired in the ion trap. PEAKS® 8.0 (Bioinformatics Solutions, Inc., Waterloo, Canada) was used to analyze raw data. […]

[3] = tested on: SAKcaC (stretch-activated BK channel); experiment: Single-channel current recording of SAKcaC with GsMTx4 back-filled in the pipette; type: cell-based, chick; conditions: for Po of SAKcaC (amplitude histogram): 50 nM GsMTx4 in pipette, 25 min after onset of back-filling, chick ventricular myocytes, typical patch
[4] = JMJD6^Δ363–403, MALDI-TOF MS, inhibitor concentration not given

Row | Compound | Hydroxylation (JMJD6^Δ363–403 [1]) [%] | kcat/Km^app (JMJD6^Δ363–403 [1]) [M⁻¹ s⁻¹] | kcat (JMJD6^Δ363–403 [1]) | Km (JMJD6^Δ363–403 [1]) [µM] | further results
1 | SRERRKLSRSRSR [LUC7L1_287–298, fragment of LUC7L1] | 18.3 ± 3.1 | – | – | – | –
2 | RKHRSRSRDRRRSKS [CROP341–355, fragment of SR protein CROP/LUC7L3] | 92.7 ± 6.9 | 217 | 165 ± 12 × 10^−4 s^−1 | 76 ± 13 | –
3 | ENRHRKRSHSRSRSR [U2AF65_21–35, fragment of the RS region of U2AF65] | 74.7 ± 4.1 | 68 | 40.0 ± 2.2 × 10^−4 s^−1 | 59 ± 8.6 | –
4 | pVHL166–177K171A: alanine variant of pVHL166–177 (VRSLVAPENYRR; UniProt P40337 166-177, looked up, fragment K171A) | – | – | – | – | JMJD6-catalyzed hydroxylation (+16-Da mass shift), result in words (JMJD6^Δ363–403 [1]): did not manifest hydroxylation
5 | RSPKRKLSRSPSPR [SRSF11_358–372, fragment of SRSF11] | 44.1 ± 3.9 | 229 | 174 ± 19 × 10^−4 s^−1 | 76 ± 21 | –
6 | SRSRRRSHSKSR [SRSF11_271–282, fragment of SRSF11] | 33.6 ± 1.8 | – | – | – | –
7 | RSKSPRRRRSHSR [SRSF11_286–298, fragment of SRSF11] | 90.5 ± 5.0 | 195 | 80.0 ± 3.9 × 10^−4 s^−1 | 41 ± 6.6 | –
8 | DRKSYKHRSKSRDR [CROP357–370, fragment of SR protein CROP/LUC7L3] | 88.7 ± 4.9 | 42 | 39.0 ± 3.6 × 10^−4 s^−1 | 93 ± 20 | –
9 | ERGRRSRSTSKT [SRSF11_299–310, fragment of SRSF11] | 6.40 ± 0.90 | – | – | – | –
10 | SGR(me2s)GKGGKGLGKGGAKRHK-biotin [H4R3(me2s)1–18, histone 4 peptide with symmetrically di-methylated Arg3 and K-biotin] | – | – | – | – | JMJD6-catalyzed hydroxylation (+16-Da mass shift), result in words (JMJD6^Δ363–403 [1]): catalyzes hydroxylation; JMJD6-catalyzed demethylation (−14 or −28 Da mass shift), result in words (JMJD6^Δ363–403 [2]): does not have RDM activity; JMJD2E-catalyzed demethylation (−14 and −28 Da mass shifts), result in words (JMJD2E (KDM4E)): manifested demethylation
11 | pVHL166–177: lysine-containing pVHL sequence (VRSLVKPENYRR; UniProt P40337 166-177, looked up, fragment) | – | – | – | – | JMJD6-catalyzed hydroxylation (+16-Da mass shift), result in words (JMJD6^Δ363–403 [1]): presence of a +16-Da mass shift
12 | NPKRSRSREHRR [LUC7L2_267–278, reported JMJD6 substrate, fragment of SR protein LUC7L2, reference compound] | 98.5 ± 4.8 | 208 | 106 × 10^−4 s^−1 and 106 ± 4.0 × 10^−4 s^−1 | 51 ± 4.6 | –
13 | SRDHKRSRSRERRRS [CROP311–325, fragment of SR protein CROP/LUC7L3] | 89.3 ± 1.9 | 269 | 191 ± 6.6 × 10^−4 s^−1 | 71 ± 7.2 | –
14 | H3_1–25: histone 3 peptide with unmodified arginine residues | – | – | – | – | JMJD6-catalyzed hydroxylation (+16-Da mass shift), result in words (JMJD6^Δ363–403 [1]): hydroxylation of lysine residues was also observed
15 | KSKERKRSRDRE [RBM39_51–62, fragment of RBM39] | 37.0 ± 7.6 | – | – | – | –
16 | RDRRRRSKPLTRGAK [U2AF65_55–70, fragment of U2AF65] | 61.0 ± 6.4 | 34 | 43.0 ± 5.2 × 10^−4 s^−1 | 124 ± 34 | –
17 | SRRRSRSKSPFR [RBM39_121–132, fragment of RBM39] | 82.5 ± 5.6 | 303 | 300 ± 23 × 10^−4 s^−1 | 99 ± 19 | –
18 | SRSRSRDRKRRSRSRDR [U2AF65_30–46, fragment of the RS region of U2AF65] | 72.4 ± 6.5 | 118 | 92.0 ± 7.0 × 10^−4 s^−1 | 78 ± 15 | –
19 | KRHSRSRSRS [Acinus S′95–604, fragment of Acinus S′] | 12.5 ± 3.0 | – | – | – | –
20 | RSRSGTRSPKKPSR [SRSF11_347–360, fragment of SRSF11] | 97.0 ± 2.2 | 159 | 146 ± 9.6 × 10^−4 s^−1 | 92 ± 14 | –
21 | O=C(O)c1ccnc(C(=O)O)c1 [2,4-PDCA, 2,4-pyridine dicarboxylic acid, reference compound] | – | – | – | – | Hydroxylation of ERα 251–262 peptide by JMJD6 on addition of the inhibitor (JMJD6^Δ363–403 [1]; [4]): Hydroxylation was ablated; Hydroxylation of WT pVHL166–177 by JMJD6 in the presence of the inhibitor (JMJD6^Δ363–403 [1]; [4]): did not manifest hydroxylation
22 | ERα251–262K252A: ERα 251–262 peptide with alanine substitution K252A (MAGGIRKDRRGG; UniProt P03372 251-262, looked up, fragment K252A) | – | – | – | – | JMJD6-catalyzed hydroxylation (+16-Da mass shift), result in words (JMJD6^Δ363–403 [1]): Hydroxylation was ablated
23 | PRSRSRSRDRRRKE [Acinus S′447–460, fragment of Acinus S′] | 25.6 ± 2.8 | – | – | – | –
24 | RKRSRSKERRRS [RBM39_71–82, fragment of RBM39] | 87.6 ± 7.0 | 322 | 284 ± 11 × 10^−4 s^−1 | 88 ± 8.7 | –
25 | H4_1–30: histone 4 peptide with unmodified arginine residues | – | – | – | – | JMJD6-catalyzed hydroxylation (+16-Da mass shift), result in words (JMJD6^Δ363–403 [1]): hydroxylation of lysine residues was also observed
26 | ERα251–262K257A: ERα 251–262 peptide with alanine substitution K257A (MKGGIRADRRGG; UniProt P03372 251-262, looked up, fragment K257A) | – | – | – | – | JMJD6-catalyzed hydroxylation (+16-Da mass shift), result in words (JMJD6^Δ363–403 [1]): Hydroxylation was ablated
27 | RSKKRKKSKSRS [RBM39_31–42] | 99.0 ± 0.70 | 455 | 255 ± 15 × 10^−4 s^−1 | 56 ± 9.6 | –
28 | SKSRSRSHERKRS [RBM39_38–50, fragment of RBM39] | 79.0 ± 8.9 | 395 | 281 ± 15 × 10^−4 s^−1 | 71 ± 9.9 | –
29 | GsMTx4: inhibitor of stretch-activated BK channel (mismatched supplement) (GCLEFWWKCNPNDDKCCRPKLKCSKLFKLCNFSF; ends and bridges not checked; cysteine pairing not given here; UniProt Q7YT39 47-80, looked up) | – | – | – | – | Po of SAKcaC (amplitude histogram) ([3]; 1 mM intracellular Ca2+): 35.5; Po of SAKcaC (amplitude histogram) ([3]; –40 mV, 0.8 µM intracellular Ca2+): 14.2; Effect on stretch-activated BK channel and its single-channel conductance, result in words ([3]; 100 nM GsMTx4 in the pipette, 1 mM intracellular Ca2+, 30 min after onset of back-filling): inhibits stretch-activated BK channel without changing single-channel conductance
